Reference: PubChem BioAssay AID276 (DTP/NCI, 2004)
“And” between values parts separate entries of the source, which are not always exact repeats. Equal values may be shown once. Toxic doses and inconclusive results are not listed. The calls were made as follows: active = survival T/C of 150% or more; inactive = T/C below 125% in these data.

Test system: B6C3F1 mice, Lewis lung carcinoma iv, survival T/C
Assay: NCI In Vivo Anticancer Drug Screen. Data for tumor model Lewis Lung Carcinoma (intravenous) in B6C3F1 mice
Settings: endpoint: median survival time, schedule: Q01DX009 (ip), higher = longer survival
Method in brief: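 Tumors were transplanted into mice, which were then dosed with compound or vehicle. Survival was recorded in each group, and the treated figure was divided by the control figure.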

[1] = dose: 12.5 mg/kg/injection, vehicle: suspension in saline
[2] = dose: 25.0 mg/kg/injection, vehicle: suspension in saline
[3] = dose: 50.0 mg/kg/injection, vehicle: suspension in saline
[4] = dose: 100.0 mg/kg/injection, vehicle: suspension in saline
[5] = dose: 200.0 mg/kg/injection, vehicle: suspension in saline
[6] = dose: 25.0 mg/kg/injection, vehicle: Klucel (hydroxypropylcellulose) (HPC)
[7] = dose: 50.0 mg/kg/injection, vehicle: Klucel (hydroxypropylcellulose) (HPC)
[8] = dose: 100.0 mg/kg/injection, vehicle: Klucel (hydroxypropylcellulose) (HPC)
[9] = dose: 200.0 mg/kg/injection, vehicle: Klucel (hydroxypropylcellulose) (HPC)
[10] = dose: 25.0 mg/kg/injection, vehicle: saline
[11] = dose: 50.0 mg/kg/injection, vehicle: saline
[12] = dose: 100.0 mg/kg/injection, vehicle: saline
[13] = dose: 12.5 mg/kg/injection, vehicle: saline with Tween-80
[14] = dose: 25.0 mg/kg/injection, vehicle: saline with Tween-80
[15] = dose: 50.0 mg/kg/injection, vehicle: saline with Tween-80
[16] = dose: 100.0 mg/kg/injection, vehicle: saline with Tween-80
[17] = dose: 200.0 mg/kg/injection, vehicle: saline with Tween-80
[18] = dose: 12.5 mg/kg/injection, vehicle: Klucel (hydroxypropylcellulose) (HPC)
[19] = dose: 400.0 mg/kg/injection, vehicle: Klucel (hydroxypropylcellulose) (HPC)
[20] = dose: 12.5 mg/kg/injection, vehicle: saline
[21] = dose: 200.0 mg/kg/injection, vehicle: saline
[22] = dose: 50.0 mg/kg/injection, vehicle: water

Measured: T/C

COc1ccc(/C=C/C(=O)c2cc(C(=O)O)c(OC)cc2OC)cc1OC
inactive: [1] 98 % of control | [2] 104 % of control | [3] 98 % of control | [4] 90 % of control | [5] 95 % of control

N/C(=N\OC(=O)Nc1ccc(CSc2ccc(Cl)cc2)o1)c1ccccn1
inactive: [6] 102 % of control | [7] 103 % of control | [8] 99 % of control | [9] 99 % of control

CCN(CC)CCOCCO
inactive: dose: 12.0 mg/kg/injection, vehicle: saline 96 % of control | [10] 99 % of control | [11] 99 % of control | [12] 101 % of control

COc1ccc2c(ccc3oc([N+](=O)[O-])cc32)c1
inactive: [13] 98 % of control | [14] 110 % of control | [15] 104 % of control | [16] 100 % of control

Cc1ccc(N)c(N)c1
inactive: [14] 96 % of control | [15] 98 % of control | [16] 108 % of control | [17] 103 % of control

O=C1C(NCCO)=C(N2CC2)C(=O)C(NCCO)=C1N1CC1
inactive: dose: 0.06 mg/kg/injection, vehicle: saline 103 % of control | dose: 0.12 mg/kg/injection, vehicle: saline 97 % of control | dose: 0.25 mg/kg/injection, vehicle: saline 106 % of control | dose: 0.5 mg/kg/injection, vehicle: saline 108 % of control | dose: 1.0 mg/kg/injection, vehicle: saline 106 % of control

CC(C)(C)C1CCCCC1
inactive: [18] 92 % of control | [6] 93 % of control | [7] 108 % of control | [8] 101 % of control | [9] 103 % of control | [19] 96 % of control

O=c1[nH]cc(F)c(=O)[nH]1
inactive: dose: 5.0 mg/kg/injection, vehicle: saline 105 % of control | dose: 10.0 mg/kg/injection, vehicle: saline 97 % of control and 102 % of control | dose: 20.0 mg/kg/injection, vehicle: saline 107 % of control

CC12CC(C(=O)O)C3(O)CC(C)(C1)CC(C)(C2)C3 (stereo not given) (tested in a mixture with another compound)
inactive: [8] 124 % of control | [9] 114 % of control | [19] 98 % of control

CCCCn1cnc2c(=S)nc[nH]c21
inactive: [10] 112 % of control | [11] 110 % of control

NC1=NC(=O)N2CC12 (stereo not given)
inactive: [20] 110 % of control | [10] 110 % of control | [12] 110 % of control | [21] 109 % of control

O=CCC(O)C(O)C(O)CO (stereo not given)
inactive: dose: 300.0 mg/kg/injection, vehicle: suspension in saline 102 % of control | dose: 600.0 mg/kg/injection, vehicle: suspension in saline 108 % of control | dose: 1200.0 mg/kg/injection, vehicle: suspension in saline 114 % of control | dose: 1800.0 mg/kg/injection, vehicle: suspension in saline 117 % of control | dose: 2400.0 mg/kg/injection, vehicle: suspension in saline 106 % of control

CCOC(=O)Nc1cc2c(c(N)n1)N=C(c1ccccc1)CN2
inactive: dose: 1.25 mg/kg/injection, vehicle: saline with Tween-80 105 % of control | dose: 2.5 mg/kg/injection, vehicle: saline with Tween-80 105 % of control | dose: 5.0 mg/kg/injection, vehicle: saline with Tween-80 100 % of control

CCOC(=O)C1=C(C#N)C2(CCC(OCc3ccccc3)CC2)C(=O)O1 (stereo not given)
inactive: [1] 94 % of control | [2] 94 % of control | [3] 92 % of control | [4] 95 % of control | [5] 102 % of control

CCN(CC)Cc1cc2[nH]c3c4ccc(Cl)cc4ncc3c2cc1OC
inactive: [13] 97 % of control | [14] 101 % of control | [15] 101 % of control

CC(=O)OCC1OC(n2ccc(N)nc2=O)C(OC(C)=O)C1OC(C)=O (stereo not given)
inactive: [20] 92 % of control | [10] 100 % of control | [11] 101 % of control | [12] 115 % of control | [21] 115 % of control

[Na+]
inactive: [22] 102 % of control | dose: 100.0 mg/kg/injection, vehicle: water 99 % of control | dose: 200.0 mg/kg/injection, vehicle: water 95 % of control | dose: 400.0 mg/kg/injection, vehicle: water 94 % of control | dose: 800.0 mg/kg/injection, vehicle: water 108 % of control

CN(C)c1ccc2c(SCC(=O)OCC(=O)[C@@]3(O)CC[C@H]4[C@@H]5CCC6=CC(=O)C=C[C@]6(C)[C@H]5C(=O)C[C@@]43C)c3ccc(N(C)C)cc3nc2c1
inactive: [9] 94 % of control | [19] 99 % of control | dose: 800.0 mg/kg/injection, vehicle: Klucel (hydroxypropylcellulose) (HPC) 101 % of control

CCCC(=O)O.CCCC(=O)O.CCCC(=O)O.CCCC(=O)O.[Rh].[Rh]
inactive: dose: 0.03 mg/kg/injection, vehicle: saline + alcohol 95 % of control | dose: 0.06 mg/kg/injection, vehicle: saline + alcohol 97 % of control and 100 % of control | dose: 0.12 mg/kg/injection, vehicle: saline + alcohol 93 % of control and 100 % of control | dose: 0.25 mg/kg/injection, vehicle: saline + alcohol 91 % of control and 102 % of control | dose: 0.5 mg/kg/injection, vehicle: saline + alcohol 92 % of control and 97 % of control | dose: 1.0 mg/kg/injection, vehicle: saline + alcohol 91 % of control and 96 % of control

CN(Cc1cnc2nc(N)nc(N)c2n1)c1ccc(C(=O)N[C@@H](CCC(=O)O)C(=O)O)cc1
inactive: dose: 1.0 mg/kg/injection, vehicle: sodium bicarbonate 102 % of control | dose: 2.0 mg/kg/injection, vehicle: sodium bicarbonate 107 % of control and 88 % of control | dose: 4.0 mg/kg/injection, vehicle: sodium bicarbonate 96 % of control and 102 % of control

CCCC(=O)OCC1OC(n2cnc3c(=S)nc[nH]c32)C(OC(=O)CCC)C1OC(=O)CCC (stereo not given)
inactive: [13] 99 % of control | [14] 99 % of control | [15] 94 % of control

C=Cc1cnc([N+](=O)[O-])n1C
inactive: [18] 94 % of control | [6] 90 % of control | [7] 99 % of control | [8] 92 % of control | [9] 92 % of control

CC(C)NCC(O)COc1ccc(O)c(O)c1 (stereo not given)
inactive: [10] 93 % of control and 96 % of control | [11] 98 % of control and 100 % of control | [12] 89 % of control and 96 % of control | [21] 98 % of control

CC(Cc1ccc(O)c(O)c1)C(C)Cc1ccc(O)c(O)c1 (stereo not given)
inactive: dose: 12.0 mg/kg/injection, vehicle: saline with Tween-80 100 % of control | [14] 113 % of control | [15] 103 % of control | [16] 94 % of control | [17] 104 % of control | dose: 400.0 mg/kg/injection, vehicle: saline with Tween-80 100 % of control

OCC12COCN1COC2
inactive: [20] 103 % of control and 104 % of control | [10] 98 % of control and 101 % of control | [11] 100 % of control and 106 % of control | [12] 97 % of control and 102 % of control | [21] 98 % of control | dose: 400.0 mg/kg/injection, vehicle: saline 104 % of control and 112 % of control

COc1ccc(OC)c(Cc2cnc3nc(N)nc(N)c3c2C)c1
inactive: dose: 6.25 mg/kg/injection, vehicle: water 104 % of control | dose: 12.5 mg/kg/injection, vehicle: water 112 % of control | dose: 25.0 mg/kg/injection, vehicle: water 100 % of control | [22] 92 % of control

Clc1ccc(C2SC=Cc3ccccc32)cc1 (stereo not given)
inactive: [6] 115 % of control | [7] 114 % of control | [8] 110 % of control | [9] 107 % of control | [19] 105 % of control
